{"source": "patent US12565501B2", "about": "“Muscarinic acetylcholine M1 receptor antagonists” (Contineum Therapeutics, Inc., priority 2019, dated 2026)", "data": [{"biological_target": "T1, human M1 receptor (Homo sapiens, UniProt P11229)", "T1 sequence (P11229 1-460)": "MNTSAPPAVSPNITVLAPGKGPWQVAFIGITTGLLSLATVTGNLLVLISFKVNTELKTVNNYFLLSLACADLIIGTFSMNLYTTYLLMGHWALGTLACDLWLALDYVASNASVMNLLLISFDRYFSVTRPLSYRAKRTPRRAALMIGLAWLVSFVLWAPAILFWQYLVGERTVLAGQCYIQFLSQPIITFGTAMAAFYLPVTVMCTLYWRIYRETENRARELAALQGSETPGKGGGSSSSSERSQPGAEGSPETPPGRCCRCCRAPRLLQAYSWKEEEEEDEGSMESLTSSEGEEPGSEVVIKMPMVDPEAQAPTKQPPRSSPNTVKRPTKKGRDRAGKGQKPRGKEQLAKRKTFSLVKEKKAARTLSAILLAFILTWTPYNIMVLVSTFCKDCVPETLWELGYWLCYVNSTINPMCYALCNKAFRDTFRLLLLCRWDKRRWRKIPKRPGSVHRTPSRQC", "assay": "In vitro functional assay of muscarinic acetylcholine receptor activity (aequorin calcium flux, reversal of EC80 acetylcholine response)", "assay_type": "cell-based", "conditions": "CHO-K1 cells stably expressing human M1 receptor with aequorin; acetylcholine at EC80; calcium flux (luminescence); read-out: M1 IC50", "procedure,_shortened": "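Antagonist mode: compound (final 0.1% DMSO) and coelenterazine-loaded M1/aequorin CHO-K1 cells incubated 30 min in the dark before EC80 acetylcholine addition. Calcium flash integrated as 40 s luminescence AUC; IC50 derived from dose-response curves.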", "units": {"IC50": "nM"}, "values": [{"compound": "N#Cc1ccc(N2C3CCC2CN(C(=O)CNC2(c4ccc(F)c(F)c4)CC2)C3)nc1", "note": "[Example 60, 6-(3-((1-(3,4-difluorophenyl)cyclopropyl)glycyl)-3,8-diazabicyclo[3.2.1]octan-8-yl)nicotinonitrile]", "IC50": "10 to 100"}, {"compound": "COc1ccc(C2(OCC(=O)N3CC4CCC(C3)N4c3ccc(C#N)cn3)CCC2)nc1", "note": "[Example 256, 6-(3-(2-(1-(5-methoxypyridin-2-yl)cyclobutoxy)acetyl)-3,8-diazabicyclo[3.2.1]octan-8-yl)nicotinonitrile]", "IC50": "1000 to 10000"}, {"compound": "N#Cc1ccc(N2[C@@H]3CC[C@H]2CN(C(=O)CCNC2(c4cccc(F)c4)CC2)C3)nc1", "note": "[Example 4, 6-(3-(3-((1-(3-fluorophenyl)cyclopropyl)amino)propanoyl)-3,8-diazabicyclo[3.2.1]octan-8-yl)nicotinonitrile]", "IC50": "10 to 100"}, {"compound": "COc1ccc(C2(OCC(=O)N3CC4CCC(C3)N4c3ccc(C#N)cn3)CC2)cc1F", "note": "[Example 222, 6-(3-(2-(1-(3-fluoro-4-methoxyphenyl)cyclopropoxy)acetyl)-3,8-diazabicyclo[3.2.1]octan-8-yl)nicotinonitrile]", "IC50": "1000 to 10000"}, {"compound": "N#Cc1ccc(N2C3CCC2CN(C(=O)COC2(c4cccc(Br)c4)CC2)C3)nc1", "note": "[Example 209, 6-(3-(2-(1-(3-bromophenyl)cyclopropoxy)acetyl)-3,8-diazabicyclo[3.2.1]octan-8-yl)nicotinonitrile]", "IC50": "100 to 1000"}, {"compound": "N#Cc1ccc(N2C3CCC2CN(C(=O)COC2(c4cccc(F)c4)CC2)C3)nc1", "note": "[Example 206, 6-(3-(2-(1-(3-fluorophenyl)cyclopropoxy)acetyl)-3,8-diazabicyclo[3.2.1]octan-8-yl)nicotinonitrile]", "IC50": "100 to 1000"}, {"compound": "N#Cc1ccc(N2C3CCC2CN(C(=O)COC2(c4cccnn4)CCC2)C3)nc1", "note": "[Example 274, 6-(3-(2-(1-(pyridazin-3-yl)cyclobutoxy)acetyl)-3,8-diazabicyclo[3.2.1]octan-8-yl)nicotinonitrile]", "IC50": "10 to 100"}, {"compound": "COc1ccc(F)c(C2(NCC(=O)N3CC4CCC(C3)N4c3ccc(C#N)cn3)CCC2)c1F", "note": "[Example 117, 6-(3-((1-(2,6-difluoro-3-methoxyphenyl)cyclobutyl)glycyl)-3,8-diazabicyclo[3.2.1]octan-8-yl)nicotinonitrile]", "IC50": "100 to 1000"}, {"compound": "C[C@H](NCC(=O)N1C[C@H]2CC[C@@H](C1)N2c1ccc(C#N)cn1)c1cccc2c1OC(F)(F)O2", "note": "[Example 68, 6-(3-(((S)-1-(2,2-difluorobcnzo[d][1,3]dioxol-4-yl)ethyl)glycyl)-3,8-diazabicyclo[3.2.1]octan-8-yl)nicotinonitrile]", "IC50": "< 10"}, {"compound": "N#Cc1ccc(N2C3CC2CN(C(=O)CNC2(c4ccc(F)cc4F)CC2)C3)nc1", "note": "[Example 79, 6-(3-((1-(2,4-difluorophenyl)cyclopropyl)glycyl)-3,6-diazabicyclo[3.1.1]heptan-6-yl)nicotinonitrile]", "IC50": "1000 to 10000"}, {"compound": "COc1cncc(C2(OCC(=O)N3CC4CCC(C3)N4c3ccc(C#N)cn3)COC2)c1", "note": "[Example 243, 6-(3-(2-((3-(5-methoxypyridin-3-yl)oxetan-3-yl)oxy)acetyl)-3,8-diazabicyclo [3.2.1]octan-8-yl)nicotinonitrile]", "IC50": "100 to 1000"}, {"compound": "COc1cc([C@H](C)NCC(=O)N2C[C@H]3CC[C@@H](C2)N3c2ccc(C#N)cn2)ccn1", "note": "[Example 93, 6-(3-(((S)-1-(2-methoxypyridin-4-yl)ethyl)glycyl)-3,8-diazabicyclo[3.2.1]octan-8-yl)nicotinonitrile]", "IC50": "< 10"}, {"compound": "CC(c1ccc(F)cc1)[S+]([O-])CC(=O)N1CC2CCC(C1)N2c1ccc(C#N)cn1", "note": "(racemic) [Example 167, 6-(3-(2-((1-(4-fluorophenyl)ethyl)sulfinyl)acetyl)-3,8-diazabicyclo[3.2.1]octan-8-yl)nicotinonitrile]", "IC50": "100 to 1000"}, {"compound": "COc1ccc(C2(OCC(=O)N3CC4CCC(C3)N4c3ccc(C#N)cn3)CCC2)cn1", "note": "[Example 257, 6-(3-(2-(1-(6-methoxypyridin-3-yl)cyclobutoxy)acetyl)-3,8-diazabicyclo[3.2.1]octan-8-yl)nicotinonitrile]", "IC50": "1000 to 10000"}, {"compound": "N#Cc1cc(N2C3CCC2CN(C(=O)COC2(c4ccncc4F)CCC2)C3)ccn1", "note": "[Example 282, 4-(3-(2-(1-(3-fluoropyridin-4-yl)cyclobutoxy)acetyl)-3,8-diazabicyclo[3.2.1]octan-8-yl)picolinonitrile]", "IC50": "10 to 100"}, {"compound": "N#Cc1ccc(C2(NCCC(=O)N3CC4CCC(C3)N4c3ccc(C#N)cn3)CC2)cc1", "note": "[Example 14, 6-(3-(3-((1-(4-cyanophenyl)cyclopropyl)amino)propanoyl)-3,8-diazabicyclo[3.2.1]octan-8-yl)nicotinonitrile]", "IC50": "1000 to 10000"}, {"compound": "COc1cncc(C2(OCC(=O)N3CC4CCC(C3)N4c3ccc(C#N)cn3)CC2)c1", "note": "[Example 230, 6-(3-(2-(1-(5-methoxypyridin-3-yl)cyclopropoxy)acetyl)-3,8-diazabicyclo[3.2.1]octan-8-yl)nicotinonitrile]", "IC50": "< 10"}, {"compound": "N#Cc1ccc(N2C3CCC2CN(C(=O)COC2(c4ccc(F)cc4)COC2)C3)nc1", "note": "[Example 240, (3-(2-((3-(4-fluorophenyl)oxetan-3-yl)oxy)acetyl)-3,8-diazabicyclo[3.2.1]octan-8-yl)nicotinonitrile]", "IC50": "100 to 1000"}, {"compound": "N#Cc1ccc(N2[C@@H]3CC[C@H]2CN(C(=O)CCNC2(c4ncc(F)cc4F)CC2)C3)nc1", "note": "[Example 31, 6-(3-(3-((1-(3,5-difluoropyridin-2-yl)cyclopropyl)amino)propanoyl)-3,8-diazabicyclo[3.2.1]octan-8-yl)nicotinonitrile]", "IC50": "100 to 1000"}, {"compound": "N#Cc1ccc(N2C3CCC2CN(C(=O)COC2(c4cncnc4)CCC2)C3)nc1", "note": "[Example 262, 6-(3-(2-(1-(pyrimidin-5-yl)cyclobutoxy)acetyl)-3,8-diazabicyclo[3.2.1]octan-8-yl)nicotinonitrile]", "IC50": "100 to 1000"}, {"compound": "CC(OCCC(=O)N1CC2CCC(C1)N2c1ccc(C#N)cn1)c1cccc2ncccc12", "note": "(racemic) [Example 311, 6-(3-(3-(1-(quinolin-5-yl)ethoxy)propanoyl)-3,8-diazabicyclo[3.2.1]octan-8-yl)nicotinonitrile]", "IC50": "< 10"}, {"compound": "CC1c2ccccc2CCN1CC(=O)N1CC2CCC(C1)N2c1ccc(C#N)cn1", "note": "(racemic) [Example 106, 6-(3-(2-(1-methyl-3,4-dihydroisoquinolin-2(1H)-yl)acetyl)-3,8-diazabicyclo[3.2.1]octan-8-yl)nicotinonitrile]", "IC50": "100 to 1000"}, {"compound": "COc1ncc(F)c(C2(OCC(=O)N3CC4CCC(C3)N4c3ccc(C#N)cn3)CCC2)c1F", "note": "[Example 272, 6-(3-(2-(1-(3,5-difluoro-2-methoxypyridin-4-yl)cyclobutoxy)acetyl)-3,8-diazabicyclo[3.2.1]octan-8-yl)nicotinonitrile]", "IC50": "10 to 100"}, {"compound": "N#Cc1ccc(N2C3CCC2CN(C(=O)COC2(c4ncc(F)cc4F)CCC2)C3)nc1", "note": "[Example 271, 6-(3-(2-(1-(3,5-difluoropyridin-2-yl)cyclobutoxy)acetyl)-3,8-diazabicyclo[3.2.1]octan-8-yl)nicotinonitrile]", "IC50": "100 to 1000"}, {"compound": "N#Cc1ccc(N2C3CCC2CN(C(=O)/C=C/C(F)(F)c2ccc(F)cc2)C3)nc1", "note": "[Example 123, 6-(3-((E)-4,4-difluoro-4-(4-fluorophenyl)but-2-enoyl)-3,8-diazabicyclo[3.2.1]octan-8-yl)nicotinonitrile]", "IC50": "10 to 100"}, {"compound": "N#Cc1ccc(C2(OCC(=O)N3CC4CCC(C3)N4c3ccc(C#N)cn3)CC2)cc1", "note": "[Example 296, 6-(3-(2-(1-(4-cyanophenyl)cyclopropoxy)acetyl)-3,8-diazabicyclo[3.2.1]octan-8-yl)nicotinonitrile]", "IC50": "1000 to 10000"}, {"compound": "N#Cc1ccc(N2C3CCC2CN(C(=O)COC2(c4cc(F)cc(C#N)c4)CC2)C3)nc1", "note": "[Example 292, 6-(3-(2-(1-(3-cyano-5-fluorophenyl)cyclopropoxy)acetyl)-3,8-diazabicyclo[3.2.1]octan-8-yl)nicotinonitrile]", "IC50": "100 to 1000"}, {"compound": "N#Cc1ccc(N2C3CCC2CN(C(=O)COC2(c4ccccc4Br)CC2)C3)nc1", "note": "[Example 181, 6-(3-(2-(1-(2-bromophenyl)cyclopropoxy)acetyl)-3,8-diazabicyclo[3.2.1]octan-8-yl)nicotinonitrile]", "IC50": "10 to 100"}, {"compound": "N#Cc1ccc(N2C3CCC2CN(C(=O)COCC2(c4ccc(F)cc4)CC2)C3)nc1", "note": "[Example 188, 6-(3-(2-((1-(4-fluorophenyl)cyclopropyl)methoxy)acetyl)-3,8-diazabicyclo[3.2.1]octan-8-yl)nicotinonitrile]", "IC50": "1000 to 10000"}, {"compound": "COc1cc(C(C)NCC(=O)N2CC3CCC(C2)N3c2ccc(C#N)cn2)ccc1F", "note": "(racemic) [Example 57, 6-(3-((1-(4-fluoro-3-methoxyphenyl)ethyl)glycyl)-3,8-diazabicyclo[3.2.1]octan-8-yl)nicotinonitrile]", "IC50": "< 10"}, {"compound": "N#Cc1ccc(N2C3CCC2CN(C(=O)COC2(c4cc(F)ccn4)CCC2)C3)nc1", "note": "[Example 248, 6-(3-(2-(1-(4-fluoropyridin-2-yl)cyclobutoxy)acetyl)-3,8-diazabicyclo[3.2.1]octan-8-yl)nicotinonitrile]", "IC50": "100 to 1000"}, {"compound": "N#Cc1ccc(N2C3CCC2CN(C(=O)CCN2CC(c4ccc(F)cc4)C2)C3)nc1", "note": "[Example 24]", "IC50": "> 1000"}, {"compound": "N#Cc1ccc(N2C3CCC2CN(C(=O)COC2(c4cccc(F)c4F)CC2)C3)nc1", "note": "[Example 211, 6-(3-(2-(1-(2,3-difluorophenyl)cyclopropoxy)acetyl)-3,8-diazabicyclo[3.2.1]octan-8-yl)nicotinonitrile]", "IC50": "10 to 100"}]}]}
